Reference: patent US7186732B2, “Non-imidazole aryloxyalkylamines” (Ortho-McNeil Pharmaceutical, Inc., priority 2000, dated 2007)
Where a name gives a salt, the structure may show the parent alone.

Target: T1, human histamine H3 receptor (Homo sapiens, UniProt Q9Y5N1)
T1 construct: expressed in transfected cells; membranes prepared from cell pellets
Experiment: [3H]-N-methylhistamine binding to membranes of histamine H3 receptor-expressing SK-N-MC cells
Settings: 0.8 nM [3H]-N-methylhistamine, 45 min at 25° C., SK-N-MC cell membranes; Ki=(IC50)/(1+([L]/(Kd)); read-out: Ki
Procedure: Thus in the present invention receptor binding was determined using the human histamine H3 receptor (See Lovenberg et al Mol. Pharmacol. 1999, 1107). Screening using the human receptor is particularly important for the identification of new therapies for the treatment of human disease. Conventional binding assays for example are determined using rat synaptosomes (Garbarg et al J. Pharmacol. Exp. Ther. 1992, 263, 304), rat cortical membranes (West et al Mol. Pharmacol. 1990, 610), and guinea pig brain (Korte et al Biochem. Biophys. Res. Commun. 1990, 978).
Transfection of Cells with Human Histamine Receptor
A 10 cm tissue culture dish with a confluent monolayer of SK-N-MC cells was split two days prior to transfection. Using sterile technique the media was removed and the cells were detached from the dish by the addition of trypsin. One fifth of the cells were then placed onto a new 10 cm dish. Cells were grown in a 37° C. incubator with 5% CO2 in Minimal Essential Media Eagle with 10% Fetal Bovine Serum. After two days cells were approximately 80% confluent. These were removed from the dish with trypsin and pelleted in a clinical centrifuge. The pellet was then re-suspended in 400 μL complete media and transferred to an electroporation cuvette with a 0.4 cm gap between the electrodes (Bio-Rad #165–2088). One microgram of supercoiled H3 receptor cDNA was added to the cells and mixed. The voltage for the electroporation was set at 0.25 kV, the capacitance was set at 960 μF. After electroporation the cells were diluted into 10 mL complete media and plated onto four 10 cm dishes. Because of the variability in the efficiency of electroporation, four different concentrations of cells were plated. The ratios used were; 1:20, 1:10, 1:5, with the remainder of the cells being added to the fourth dish. The cells were allowed to recover for 24 hours before adding the selection media (complete media with 600 μg/mL G418). After 10 days dishes were analyzed for surviving colonies of cells. Dishes with well isolated colonies were used. Cells from individual colonies were isolated and tested. SK-N-MC cells were used because they give efficient coupling for inhibition of adenylate cyclase. The clones that gave the most robust inhibition of adenylate cyclase in response to histamine were used for further study.
[^3H]-N-methylhistamine Binding
Cell pellets from histamine H3 receptor-expressing SK-N-MC cells were homogenized in 20 mM TrisHCI/0.5 mM EDTA. Supernatants from a 800 g spin were collected, recentrifuged at 30,000 g for 30 minutes. Pellets were re-homogenized in 50 mM Tris/5 mM EDTA (pH 7.4). Membranes were incubated with 0.8 nM [^3H]-N-methylhistamine plus/minus test compounds for 45 min at 25° C. and harvested by rapid filtration over GF/C glass fiber filters (pretreated with 0.3% polyethylenimine) followed by four washes with ice cold buffer. Filters were dried, added to 4 mL scintillation cocktail and then counted on a liquid scintillation counter. Non-specific binding was defined with 10 μM histamine. The pKi values were calculated based on a Kd of 800 pM and a ligand concentration ([L]) of 800 pM according to the formula: Ki=(IC50)/(1+([L]/(Kd))

T1 sequence (Q9Y5N1 whole entry): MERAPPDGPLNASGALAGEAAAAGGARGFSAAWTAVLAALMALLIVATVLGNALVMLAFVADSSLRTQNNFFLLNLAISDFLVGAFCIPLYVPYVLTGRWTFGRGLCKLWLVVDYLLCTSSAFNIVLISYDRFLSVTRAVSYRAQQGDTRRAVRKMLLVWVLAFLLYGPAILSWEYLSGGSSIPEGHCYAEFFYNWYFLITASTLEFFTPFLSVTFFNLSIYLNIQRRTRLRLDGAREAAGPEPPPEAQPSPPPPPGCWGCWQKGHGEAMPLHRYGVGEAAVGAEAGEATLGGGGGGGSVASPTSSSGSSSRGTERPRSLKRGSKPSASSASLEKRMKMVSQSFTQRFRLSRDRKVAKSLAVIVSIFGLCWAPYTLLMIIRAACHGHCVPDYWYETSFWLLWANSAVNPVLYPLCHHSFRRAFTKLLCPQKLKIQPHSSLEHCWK

SMILES	Ki [nM]
c1cc(OCCN2CCCCC2)ccc1CN1CCCCC1 [Example 20, 1-[2-(4-Piperidin-1-ylmethyl-phenoxy)-ethyl]-piperidine]	5
c1ccc2c(c1)CCN(Cc1ccc(OCCN3CCCCC3)cc1)C2 [Example 21, 2-[4-(2-Piperidin-1-yl-ethoxy)-benzyl]-1,2,3,4-tetrahydro-isoquinoline]	4
c1ccc(CN2CCN(c3ccc(OCCCN4CCCC4)cc3)CC2)cc1 [Example 24, 1-Benzyl-4-[4-(3-pyrrolidin-1-yl-propoxy)-phenyl]-piperazine]	1.3
c1cc(N2CCNCC2)ccc1OCCCN1CCCCC1 [Example 25, 1-[4-(3-Piperidin-1-yl-propoxy)-phenyl]-piperazine hydrochloride]	1
CC(C)N1CCN(c2ccc(OCCCN3CCCCC3)cc2)CC1 [Example 26, 1-Isopropyl-4-[4-(3-piperidin-1-yl-propoxy)-phenyl]-piperazine]	0.3
CN(C)CCOc1ccc(OCCCN2CCCCC2)cc1 [Example 29, Dimethyl-{2-[4-(3-piperidin-1-yl-propoxy)-phenoxy]-ethyl}-amine]	2.3
c1cc(OCCN2CCCCC2)ccc1OCCCN1CCCCC1 [Example 30, 1-{3-[4-(2-Piperidin-1-yl-ethoxy)-phenoxy]-propyl}-piperidine]	0.4
c1cc(OCCCN2CCCCC2)ccc1OCCCN1CCCCC1 [Example 31, 1-{3-[4-(3-Piperidin-1-yl-propoxy)-phenoxy]-propyl}-piperidine]	0.5
c1cc(-n2nnnc2SCCCN2CCCCC2)ccc1OCCCN1CCCCC1 [Example 32, 1-(3-{4-[5-(3-Piperidin-1-yl-propylsulfanyl)-tetrazol-1-yl]-phenoxy}-propyl)-piperidine]	0.5
c1cc(-c2ncc(OCCCN3CCCCC3)cn2)ccc1OCCCN1CCCCC1 [Example 33, 5-(3-Piperidin-1-yl-propoxy)-2-[4-(3-piperidin-1-yl-propoxy)-phenyl]-pyrimidine]	13
c1ccc(-c2ccc(OCCCN3CCCCC3)cc2)c(CN2CCCCC2)c1 [Example 34, 1-[3-(2′-Piperidin-1-ylmethyl-biphenyl-4-yloxy)-propyl]-piperidine]	1.5
c1ccc2c(c1)CCN(Cc1ccc(OCCCN3CCCCC3)cc1)C2 [Example 36, 2-[4-(3-Piperidin-1-yl-propoxy)-benzyl]-1,2,3,4-tetrahydro-isoquinoline]	0.7
CN1CCCC1c1ccc(OCCCN2CCCCC2)cc1 (stereo not drawn) [Example 37, 1-{3-[4-(1-Methyl-pyrrolidin-2-yl)-phenoxy]-propyl}-piperidine]	0.4
c1ccc(NCc2ccc(OCCCN3CCCC3)cc2)nc1 [Example 39, Pyridin-2-yl-[4-(3-pyrrolidin-1-yl-propoxy)-benzyl]-amine]	4.5
CN(C)CCCOc1ccc(CN2CCCCC2)cc1 [Example 40, Dimethyl-[3-(4-piperidin-1-ylmethyl-phenoxy)-propyl]-amine]	5.7
c1ccc(NC2CCN(Cc3ccc(OCCCN4CCCCC4)cc3)CC2)nc1 [Example 41, {1-[4-(3-Piperidin-1-yl-propoxy)-benzyl]-piperidin-4-yl}-pyridin-2-yl-amine]	0.8

SMILES	Ki [nM]
CN(CCc1ccccc1)C1CCN(Cc2ccc(OCCCN3CCCCC3)cc2)CC1 [Example 42, Methyl-phenethyl-{1-[4-(3-piperidin-1-yl-propoxy)-benzyl]-piperidin-4-yl}-amine]	1.1
CN(Cc1ccccc1)C1CCN(Cc2ccc(OCCCN3CCCCC3)cc2)CC1 [Example 43, Benzyl-methyl-{1-[4-(3-piperidin-1-yl-propoxy)-benzyl]-piperidin-4-yl}-amine]	0.5
c1cc(OCCCN2CCCCC2)ccc1CN1CCCCCCCCCCCC1 [Example 45, 1-[4-(3-Piperidin-1-yl-propoxy)-benzyl]-azacyclotridecane]	2.5
c1ccc2c(c1)CCC2NCc1ccc(OCCCN2CCCCC2)cc1 (stereo not drawn) [Example 47, Indan-1-yl-[4-(3-piperidin-1-yl-propoxy)-benzyl]-amine]	1
c1cc(OCCCN2CCCCC2)ccc1CN1CCCC1 [Example 48, 1-[3-(4-Pyrrolidin-1-ylmethyl-phenoxy)-propyl]-piperidine]	1.2
c1cc(OCCCN2CCCCC2)ccc1CNC1CCCCC1 [Example 49, Cyclohexyl-[4-(3-piperidin-1-yl-propoxy)-benzyl]-amine]	1
c1cc(OCCCN2CCCCC2)ccc1CNC1CC1 [Example 50, Cyclopropyl-[4-(3-piperidin-1-yl-propoxy)-benzyl]-amine]	1
c1cc(OCCCN2CCOCC2)ccc1CN1CCCCC1 [Example 51, 4-[3-(4-Piperidin-1-ylmethyl-phenoxy)-propyl]-morpholine]	4
CN1CCN(CCCOc2ccc(CN3CCCCC3)cc2)CC1 [Example 52, 1-Methyl-4-[3-(4-piperidin-1-ylmethyl-phenoxy)-propyl]-piperazine]	25
CN1CCN(Cc2ccc(OCCCN3CCCCC3)cc2)CC1 [Example 53, 1-Methyl-4-[4-(3-piperidin-1-yl-propoxy)-benzyl]-piperazine]	2.5
c1cc(OCCCN2CCCCC2)ccc1CN1CCC2(CC1)OCCO2 [Example 54, 8-[4-(3-Piperidin-1-yl-propoxy)-benzyl]-1,4-dioxa-8-aza-spiro[4.5]decane]	1
Clc1ccc(N2CC3CC2CN3Cc2ccc(OCCCN3CCCCC3)cc2)cc1 (stereo not drawn) [Example 55, 2-(4-Chloro-phenyl)-5-[4-(3-piperidin-1-yl-propoxy)-benzyl]-2,5-diaza-bicyclo[2.2.1]heptane]	1.4
NC(=O)C1CCN(Cc2ccc(OCCCN3CCCCC3)cc2)CC1 [Example 57, 1-[4-(3-Piperidin-1-yl-propoxy)-benzyl]-piperidine-4-carboxylic acid amide]	1
c1ccc(CCCC2CCN(Cc3ccc(OCCCN4CCCCC4)cc3)CC2)cc1 [Example 58, 1-[4-(3-Piperidin-1-yl-propoxy)-benzyl]-4-(3-phenyl-propyl)-piperidine]	1.9
CN(C)Cc1ccc(OCCCN2CCCCC2)cc1 [Example 59, Dimethyl-[4-(3-piperidin-1-yl-propoxy)-benzyl]-amine]	2

Same assay, conditions: 0.8 nM [3H]-N-methylhistamine, 45 min at 25° C., SK-N-MC cell membranes; […]; read-out: Ki

SMILES	Ki [nM]
OC1(c2ccc(OCCCN3CCCCC3)cc2)CCN(Cc2ccccc2)CC1 [Example 22, 1-Benzyl-4-[4-(3-piperidin-1-yl-propoxy)-phenyl]-piperidin-4-ol]	0.9
c1cc(N2CCNCC2)ccc1OCCCN1CCCC1 [Example 23, 1-[4-(3-Pyrrolidin-1-yl-propoxy)-phenyl]-piperazine hydrochloride]	1.3
c1ccc(CN2CCN(c3ccc(OCCCN4CCCCC4)cc3)CC2)cc1 [Example 27, 1-Benzyl-4-[4-(3-piperidin-1-yl-propoxy)-phenyl]-piperazine]	3
c1ccc(N(CCN2CCCC2)C2CCN(Cc3ccc(OCCCN4CCCCC4)cc3)CC2)nc1 [Example 38, {1-[4-(3-Piperidin-1-yl-propoxy)-benzyl]-piperidin-4-yl}-pyridin-2-yl-(2-pyrrolidin-1-yl-ethyl)-amine]	1.2
OCCC1CCN(Cc2ccc(OCCCN3CCCCC3)cc2)CC1 [Example 46, 2-{1-[4-(3-Piperidin-1-yl-propoxy)-benzyl]-piperidin-4-yl}-ethanol]	1.2
